Measured values from ChEMBL document CHEMBL5325477, “Biological Function of Pin1 in Vivo and Its Inhibitors for Preclinical Study: Early Development, Current Strategies, and Future Directions” (J Med Chem, 2023).
*1 amine or outer side, *2 acyl side, *3 side chain or, on linkers, in order; H or OH if unused. Where a SMILES comes first, the peptide text is derived from it. [ ]: non-standard residue; d: D form. The star is where a group is joined. Biotin = O=C1N[C@H]2[C@H](CS[C@H]2CCCCC(=O)*)N1; Phe(2-tBu) = CC(C)(C)c1ccccc1C[C@H](N)C(=O)O; X2 = CC(OP(=O)(O)O)[C@H](N[*:1])C(=O)[*:2]; Bip = N[C@@H](Cc1ccc(-c2ccccc2)cc1)C(=O)O; 2Nal = N[C@@H](Cc1ccc2ccccc2c1)C(=O)O; Bta = N[C@@H](Cc1csc2ccccc12)C(=O)O; Pip = O=C(O)[C@@H]1CCCCN1

Columns and labels:
[1] = biological target: T1, Peptidyl-prolyl cis-trans isomerase NIMA-interacting 1 (Homo sapiens, UniProt Q13526); experiment: Inhibition of Gst-tagged human Pin1 assessed as inhibition constant by Western blot analysis
T1 sequence (Q13526 whole entry): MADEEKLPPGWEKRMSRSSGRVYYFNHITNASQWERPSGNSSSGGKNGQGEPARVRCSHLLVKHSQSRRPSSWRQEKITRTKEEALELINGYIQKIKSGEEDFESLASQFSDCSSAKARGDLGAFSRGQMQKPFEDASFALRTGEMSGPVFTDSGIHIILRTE

[2] = biological target: T1, Peptidyl-prolyl cis-trans isomerase NIMA-interacting 1; experiment: Inhibition of full length human Pin1 expressed in Escherichia coli assessed as dissociation constant by fluorescence anisotropy binding assay
[3] = biological target: T1, Peptidyl-prolyl cis-trans isomerase NIMA-interacting 1; experiment: Inhibition of Pin1 (unknown origin)
[4] = biological target: T1, Peptidyl-prolyl cis-trans isomerase NIMA-interacting 1; experiment: Inhibition of human Pin1 assessed as inhibition constant
[5] = biological target: T1, Peptidyl-prolyl cis-trans isomerase NIMA-interacting 1; experiment: Inhibition of human Pin1
[6] = biological target: T1, Peptidyl-prolyl cis-trans isomerase NIMA-interacting 1; experiment: Inhibition of human Pin1 measured after 30 mins by fluorescence based assay
[7] = biological target: T1, Peptidyl-prolyl cis-trans isomerase NIMA-interacting 1; experiment: Inhibition of Gst-tagged human Pin1 by Western blot analysis
[8] = Inhibition of human FKBP12 assessed as dissociation constant by Western blot analysis
[9] = biological target: T1, Peptidyl-prolyl cis-trans isomerase NIMA-interacting 1; experiment: Inhibition of Pin1 (unknown origin) using Suc-Ala-Glu-Pro-Phe-pNA as substrate by spectrofluorometry assay
MDA-MB-231 = experiment: Anticancer activity against human MDA-MB-231 cells assessed as cell growth inhibition measured after 48 hrs by cell count reagent SF based assay; type: functional; settings: MDA-MB-231, 48 h
[10] = biological target: T1, Peptidyl-prolyl cis-trans isomerase NIMA-interacting 1; experiment: Inhibition of human Pin1 using Suc-AEPF-NH-Np as substrate
[11] = biological target: T1, Peptidyl-prolyl cis-trans isomerase NIMA-interacting 1
Description: Inhibition of human Pin1 using Suc-AEPF-NH-Np as substrate assessed as pseudo first order rate constant

Description for Saccharomyces cerevisiae: Inhibition of yeast Ess1 using Suc-AEPF-NH-Np as substrate assessed as pseudo first order rate constant

**Q.** For `C[C@H](N)C(=O)N[C@@H](C(=O)N1CCCC[C@H]1C(=O)N[C@@H](Cc1ccc2ccccc2c1)C(=O)N[C@@H](CCC(N)=O)C(N)=O)[C@H](C)OP(=O)(O)O`, which Ki [1] is on record?
**A.** 20 nM

**Q.** For `C[C@@H]1NC(=O)c2cc3cc(c2)C(=O)NC[C@H](NC(=O)[C@@H](C)NC(=O)[C@@H](C)NC(=O)[C@H](CCCNC(=N)N)NC(=O)[C@H](Cc2ccc4ccccc4c2)NC(=O)[C@@H]2CCCCN2C(=O)[C@@H]([C@H](C)O)NC(=O)CNC1=O)C(=O)N[C@@H](Cc1ccccc1)C(=O)N[C@@H](Cc1ccc2ccccc2c1)C(=O)N[C@@H](CCCNC(=N)N)C(=O)N[C@@H](CCCNC(=N)N)C(=O)N[C@@H](CCCNC(=N)N)C(=O)N[C@@H](CCCNC(=N)N)C(=O)N[C@H](C(N)=O)CNC3=O`, which Kd [2] is on record?
**A.** 620 nM

**Q.** Which Ki [1] does the source give for `C[C@H](N)C(=O)N[C@H](C(=O)N1CCCC[C@H]1C(=O)N[C@@H](Cc1ccc2ccccc2c1)C(=O)N[C@@H](CCC(N)=O)C(N)=O)[C@@H](C)OP(=O)(O)O` here?
**A.** 507 nM

**Q.** For `C=C(N)NCCC[C@H]1NC(=O)[C@H](CCC(N)=O)NC(=O)[C@H](CCCNC(=N)N)NC(=O)[C@H](Cc2ccc3ccccc3c2)NC(=O)[C@@H]2CCCCN2C(=O)[C@@H]([C@H](C)OP(=O)(O)O)NC(=O)[C@@H](CCCNC(=N)N)NC1=O`, which IC50 [3] is on record?
**A.** 220 nM

**Q.** With `O=C(c1ccccc1O)C1CCc2ccccc21` (stereo not drawn) as the compound, how does the Ki [4] read?
**A.** 5100 nM

**Q.** Which Ki [4] does the source give for `O=C(c1cc(-c2cc(F)ccc2O)ccc1O)C1CCc2ccccc21` (stereo not drawn) here?
**A.** 3100 nM

**Q.** For `CC(=O)N[C@H](CN1CCC[C@H]1C(=O)NCCc1c[nH]c2ccccc12)OP(=O)(O)O`, which IC50 [5] is on record?
**A.** 12000 nM

**Q.** Which Ki [1] does the source give for `CC(=O)N[C@@H](CCCCNC(=O)CCCC[C@@H]1SC[C@@H]2NC(=O)N[C@@H]21)C(=O)N[C@@H](C)C(=O)N[C@@H](C)C(=O)N[C@@H](Cc1csc2ccccc12)C(=O)N[C@H](C(=O)N1CCCC[C@H]1C(=O)N[C@@H](Cc1ccc2ccccc2c1)C(=O)N[C@@H](CCC(N)=O)C(N)=O)C(C)OP(=O)(O)O` (stereo partly drawn) (Ac-K(Biotin)AA[Bta][X2][Pip][2Nal]Q-NH2) here?
**A.** 183 nM

**Q.** With `NC(=O)CNC(=O)C1=C[C@@H](Oc2cc(F)ccc2Br)[C@H](O)[C@H](O)C1` as the compound, how does the IC50 [6] read?
**A.** 1070 nM

**Q.** Which Ki [4] does the source give for `Nc1cc(F)cc(-c2ccc(O)c(C(=O)C3CCc4ccccc43)c2)c1O` (stereo not drawn) here?
**A.** 400 nM

**Q.** For `CC(=O)N[C@@H](CCCCNC(=O)CCCC[C@@H]1SC[C@@H]2NC(=O)N[C@@H]21)C(=O)N[C@@H](C)C(=O)N[C@@H](C)C(=O)N[C@@H](Cc1ccccc1C(C)(C)C)C(=O)N[C@H](C(=O)N1CCC[C@H]1C(=O)N[C@@H](Cc1ccc2ccccc2c1)C(=O)N[C@@H](CCC(N)=O)C(N)=O)C(C)OP(=O)(O)O` (stereo partly drawn) (Ac-K(Biotin)AA[Phe(2-tBu)][X2]P[2Nal]Q-NH2), which IC50 [7] is on record?
**A.** 30000 nM

**Q.** For `O=C(c1cc(-c2cc(F)cc([N+](=O)[O-])c2O)ccc1O)C1CCc2ccccc21` (stereo not drawn), which Ki [4] is on record?
**A.** 500 nM

**Q.** For `COc1ccc(F)cc1-c1cc(NC(=O)C[C@@H]2SC[C@H]3NC(=O)N[C@@H]23)c(O)c(C(=O)C2CCc3ccccc32)c1` (stereo partly drawn), which Ki [4] is on record?
**A.** 1400 nM

**Q.** For `COc1ccc(F)cc1C(=O)C1(C)CCc2ccccc21` (racemic), which Ki [4] is on record?
**A.** 19000 nM

**Q.** Which IC50 [3] does the source give for `Nc1nc(OCc2ccc(CNC(=O)C(F)(F)F)cc2)c2nc[nH]c2n1` here?
**A.** 72.3 nM

**Q.** For `CC(=O)N[C@@H](CCCCNC(=O)CCCC[C@@H]1SC[C@@H]2NC(=O)N[C@@H]21)C(=O)N[C@@H](C)C(=O)N[C@@H](C)C(=O)N[C@@H](Cc1ccc(-c2ccccc2)cc1)C(=O)N[C@H](C(=O)N1CCC[C@H]1C(=O)N[C@@H](Cc1ccc2ccccc2c1)C(=O)N[C@@H](CCC(N)=O)C(N)=O)C(C)OP(=O)(O)O` (stereo partly drawn) (Ac-K(Biotin)AA[Bip][X2]P[2Nal]Q-NH2), which IC50 [7] is on record?
**A.** 18000 nM

**Q.** Which Kd [8] does the source give for `CO[C@H]1C[C@@H]2CC[C@@H](C)[C@@](O)(O2)C(=O)C(=O)N2CCCC[C@H]2C(=O)O[C@H]([C@H](C)C[C@@H]2CC[C@@H](O)[C@H](OC)C2)CC(=O)[C@H](C)/C=C(\C)[C@@H](O)[C@@H](OC)C(=O)[C@H](C)C[C@H](C)/C=C/C=C/C=C/1C` [SIROLIMUS] here?
**A.** 0.2 nM

**Q.** For `C[C@H](N)C(=O)N[C@@H](C)C(=O)N[C@H](COP(=O)(O)O)C(=O)N1CCC[C@H]1C(=O)N[C@@H](CCCNC(=N)N)C(=O)Nc1ccc([N+](=O)[O-])cc1`, which IC50 [3] is on record?
**A.** 1000 nM

**Q.** For `CCOC(=O)C([Se]c1ccccc1)([Se]c1ccccc1)C(=O)OCC`, which IC50 [9] is on record?
**A.** 440 nM

**Q.** What about the IC50 (MDA-MB-231) of the same compound?
**A.** 11000 nM

**Q.** Which results are given for `O=C1C=CC(=O)c2c(O)cccc21` [JUGLONE]?
**A.** Kobs (Saccharomyces cerevisiae): 0.53 10^-3/s; IC50 [10]: 5000 nM; Kobs [11]: 1.5 10^-3/s
